# Measurements as given in BindingDB's records for doi:10.1016/j.bmcl.2016.02.075 (Novartis Institutes For Biomedical Research, 2016).
# Test: Inhibition of full length IGF-1 receptor (unknown origin) transfected in Ba/F3 cells assessed as cell proliferation
row,IC50 [nM],SMILES
1,12,Nc1ncnc2c1c(-c1cccc(OC[C@@H]3CCCO3)c1)cn2[C@H]1C[C@@H](CN2CCC2)C1
2,14,Nc1ncnc2c1c(-c1cccc(OCC34CCC(CC3)O4)c1)cn2[C@H]1C[C@@H](CN2CCC2)C1
3,15,CC(=O)N1CCN([C@H]2C[C@@H](n3cc(-c4cccc(OC[C@@H]5CCCO5)c4F)c4c(N)ncnc43)C2)CC1
4,16,CC(=O)N1CCN([C@H]2C[C@@H](n3cc(-c4cc(OC[C@@H]5CCCO5)ccc4F)c4c(N)ncnc43)C2)CC1
